Experimental data from PubChem BioAssay (NCI).
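Following 48 hours of exposure in 96-well plates, responses at five concentrations were used to interpolate endpoints linearly. GI50: concentration for 50% inhibition of growth. TGI marks complete inhibition of growth.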

Tests used:
Test in all cases: inhibition of tumour cell growth, NCI panel, 48 h
[1] = test system: RPMI-8226 leukemia
[2] = test system: HCC-2998 colon
[3] = test system: RXF 393 renal
[4] = test system: DU-145 prostate
[5] = test system: U251 CNS
[6] = test system: HS 578T breast
[7] = test system: TK-10 renal
[8] = test system: MDA-MB-231 breast
[9] = test system: UO-31 renal
[10] = test system: ACHN renal
[11] = test system: SF-295 CNS
[12] = test system: T-47D breast
[13] = test system: NCI-H226 lung
[14] = test system: SK-MEL-5 melanoma
[15] = test system: SF-268 CNS
[16] = test system: MOLT-4 leukemia
[17] = test system: COLO 205 colon
[18] = test system: A549 NSCLC
[19] = test system: OVCAR-4 ovarian
[20] = test system: UACC-257 melanoma
[21] = test system: SN12C renal
[22] = test system: MDA-MB-435
[23] = test system: NCI-H522 lung
[24] = test system: SW-620 colon
[25] = test system: PC-3 prostate
[26] = test system: SK-MEL-2 melanoma
[27] = test system: UACC-62 melanoma
[28] = test system: M14 melanoma
[29] = test system: NCI/ADR-RES ovarian

C[C@H]1Oc2cc(cnc2N)-c2c(nn(C)c2C#N)CN(C)C(=O)c2ccc(F)cc21
GI50 [1]: > 100 µM
TGI [1]: > 100 µM
GI50 [2]: > 89 µM
TGI [2]: > 100 µM
GI50 [3]: 16.7 µM
TGI [3]: > 90.9 µM
GI50 [4]: 26.6 µM
TGI [4]: > 100 µM
GI50 [5]: > 100 µM
TGI [5]: > 100 µM
GI50 [6]: 18.3 µM
TGI [6]: > 100 µM
GI50 [7]: 36.5 µM
TGI [7]: > 100 µM
GI50 [8]: 18.1 µM
TGI [8]: > 100 µM
GI50 [9]: 13.9 µM
TGI [9]: 60.2 µM
GI50 [10]: 22.8 µM
TGI [10]: > 100 µM
GI50 [11]: 47.9 µM
TGI [11]: > 100 µM
GI50 [12]: 36.2 µM
TGI [12]: > 100 µM
GI50 [13]: 40.8 µM
TGI [13]: > 100 µM
GI50 [14]: > 74.8 µM
TGI [14]: > 100 µM
GI50 [15]: 27.1 µM
TGI [15]: > 100 µM
GI50 [16]: > 93.7 µM
TGI [16]: > 100 µM
GI50 [17]: 5.24 µM
TGI [17]: 51.4 µM
GI50 [18]: 25.4 µM
TGI [18]: > 100 µM
GI50 [19]: > 100 µM
TGI [19]: > 100 µM
GI50 [20]: 25.8 µM
TGI [20]: > 100 µM
GI50 [21]: 43.1 µM
TGI [21]: > 100 µM
GI50 [22]: 48.6 µM
TGI [22]: > 100 µM
GI50 [23]: 57 µM
TGI [23]: > 100 µM
GI50 [24]: 35.6 µM
TGI [24]: > 100 µM
GI50 [25]: > 100 µM
TGI [25]: > 100 µM
GI50 [26]: 78 µM
TGI [26]: > 100 µM
GI50 [27]: 22.4 µM
TGI [27]: > 100 µM
GI50 [28]: 48.9 µM
TGI [28]: > 100 µM
GI50 [29]: 65.5 µM
TGI [29]: > 100 µM
